Where two headings read alike, the source gives them in different places.
Tests used:
[1] = cited from earlier work
[2] = system: human monocyte cell line THP-1; test: Boyden chamber assay, human monocyte migration in response to a CCL2 (MCP-1) gradient; format: cell-based; details: dose dependent, FIG. 1 (Losartan), FIG. 3 (Ondansetron)
Protocol: The Boyden chamber assay is based on a chamber of two medium-filled compartments separated by a microporous membrane. In general, cells are placed in the upper compartment and are allowed to migrate through the pores of the membrane into the lower compartment, in which chemotactic agents are present. After an appropriate incubation time, the membrane between the two compartments is fixed and stained, and the number of cells that have migrated to the lower side of the membrane is determined. Experiments using this assay were performed as described in Mitchell et al. (2012) Int. Immunopharmacol. 15: 357-363 to assess the migration of monocytes. […] A Boyden chamber assay was performed (as described in Mitchell et al. (2012) Int. Immunopharmacol, supra) to assess the migration of human monocytes (i.e., the human monocyte cell line THP-1) in response to a CCL2 (MCP-1) gradient and to assess the ability of Ondansetron to inhibit monocyte migration in vitro.

dog monocytes = test: Boyden chamber assay, dog monocyte migration in response to a CCL2 (MCP-1) gradient; format: cell-based
Protocol: The Boyden chamber assay is based on a chamber of two medium-filled compartments separated by a microporous membrane. In general, cells are placed in the upper compartment and are allowed to migrate through the pores of the membrane into the lower compartment, in which chemotactic agents are present. After an appropriate incubation time, the membrane between the two compartments is fixed and stained, and the number of cells that have migrated to the lower side of the membrane is determined. Experiments using this assay were performed as described in Mitchell et al. (2012) Int. Immunopharmacol. 15: 357-363 to assess the migration of monocytes.

inflammatory monocytes = test: Footpad inflammation-induced monocyte migration assay (flow cytometry of draining popliteal lymph nodes); format: in vivo; details: mice, 24 h after vaccination, vs vaccine only
Protocol: Footpad inflammation-induced monocyte migration assays were performed as previously described (Mitchell et al. (2012), J. Immunology 189: 5612-5621) to determine whether Ondansetron inhibits monocyte migration in vivo in mice. Briefly, two groups of mice (n=4 per group) were injected with 50 μl of liposomal vaccine adjuvant in one footpad. The first group of mice was treated by injection of 3 mg/kg Ondansetron administered IP at the time of footpad injection and the Ondansetron injections were repeated 12, 24, and 36 hours following footpad injection. […] The third group received neither the vaccine nor the Ondansetron. Inflammatory monocyte migration to the draining popliteal lymph nodes was assessed in all three groups of mice via flow cytometry (as described in Mitchell et al. (2012), J. Immunology, supra) 24 hours following vaccination.
Briefly, two groups of mice (n=4 per group) were vaccinated in the right rear footpad. […] Inflammatory monocyte migration to the draining popliteal lymph nodes was assessed in all three groups of mice via flow cytometry (as described in Mitchell et al. (2012), J. Immunology, supra) 24 hours following vaccination.

monocytes = test: Boyden chamber assay on blood samples of Losartan-treated dogs; format: in vivo
ovalbumin = test: Anti-ovalbumin antibody titers after ovalbumin vaccination (humoral immunity); format: in vivo; details: mice, boost at day 10, vs vaccine only
Protocol: Briefly, two groups of mice (n=5) were vaccinated with 5 μg of ovalbumin. […] The second group of mice received no additional treatment following vaccination. Second vaccinations were repeated 10 days following the initial vaccinations.
To assess the effects of Ondansetron on humoral immunity, mice were treated with Ondansetron at the time of vaccination. Briefly, two groups of mice (n=4 per group) were vaccinated subcutaneously with 1 μg of ovalbumin in a liposomal adjuvant. The first group of mice received 3 mg/kg Ondansetron via i.p. injection at the time of vaccination, and at 12, 24, and 36 hours following vaccination. The second group of mice received no additional treatment following vaccination. A third group of mice received neither the vaccine nor the Ondansetron. Second vaccinations were repeated for the first two groups of mice 10 days following the initial vaccinations, and second Ondansetron treatments were repeated for the groups as described for the first cycle of vaccination.

spleen cells = test: IFNγ secretion of spleen cells in response to ovalbumin restimulation (cellular immunity); format: in vivo; details: vaccinated mice treated concurrently with Losartan; restimulated in vitro 72 hours with 5 μg/ml ovalbumin; vs vaccine only; p<0.05 (FIG. 11)
Protocol: Two groups of mice were immunized as noted in Example 7 above. To determine whether cellular immunity was enhanced in the Losartan-treated mice, mice from both the first and second groups were euthanized, and their spleen cells were assayed to determine IFNγ secretion levels in response to ovalbumin restimulation. Splenectomies and restimulation assays for cellular immune responses were performed as previously described (Mitchell et al. (2012), J. Immunology, supra). Spleen cells were restimulated in vitro for 72 hours with 5 μg/ml ovalbumin protein.

A20-HA tumors = test: A20 mouse B-cell lymphoma model, tumor vaccine responses; format: in vivo, mice
Protocol: The A20 mouse B-cell lymphoma model was used to assess the effects of Ondansetron on tumor vaccine responses. Briefly, two groups of mice (n=5 per group) with established d3 A20-HA tumors (i.e., tumors expressing HA) were vaccinated weekly for 3 weeks with HA antigen (1 μg per mouse in liposome adjuvant), either without or with concurrently administered ondansetron (3 mg/kg i.p., administered 4 times at 12 h intervals). A third group of mice received neither the HA nor the Ondansetron. Tumor measurements were made using calipers every 2-3 days. Mice were sacrificed when their tumors reached a diameter of 1.5 cm.
Labeled anti-CD11b antibodies were used to quantitate the numbers of infiltrating CD11b+ monocyte/macrophages in the tumor tissues.

[3] = Table 2, Comparison of ARB Pharmacokinetics

For `CCOc1nc2cccc(C(=O)O)c2n1Cc1ccc(-c2ccccc2-c2nnn[nH]2)cc1` [Candesartan], the Bioavailability [1, 3] is listed as 15% and the “Biological Half-Life” value [1, 3] is listed as 9 hours.
In the case of `CCCCC1=NC2(CCCC2)C(=O)N1Cc1ccc(-c2ccccc2-c2nnn[nH]2)cc1` [Irbesartan], the “Biological Half-Life” value [1, 3] is listed as 11-15 hours.
In the case of `CCCCc1nc(Cl)c(CO)n1Cc1ccc(-c2ccccc2-c2nn[nH]n2)cc1` [Losartan], the “human monocyte migration (THP-1) in vitro” value [2] is reported as “potently blocked human monocyte migration (THP-1) in vitro in a dose dependent manner”, the “canine monocyte migration in vitro” value (dog monocytes; CCL2 (MCP-1) gradient, dose dependent, FIG. 2) is reported as “potently blocked canine monocyte migration in vitro in a dose dependent manner” and the “canine monocyte migration in the presence of MCP-1” value (dog monocytes; concentrations of 1 μg/ml and 10 μg/ml) is reported as “blocked canine monocyte migration even in the presence of MCP-1”. The “migration of inflammatory monocytes to the draining lymph nodes” value (inflammatory monocytes; 30 mg/kg Losartan at injection and 12 h after, p<0.05 (FIG. 6)) was “significantly reduced”, the “monocyte migration in blood samples after treatment” value (monocytes; 3 dogs with cancer, 2 mg/kg/day for two weeks, pooled data, FIG. 8) was “Monocyte migration was inhibited” and the “monocyte migration in blood samples after treatment” value (monocytes; healthy dogs, 2 mg/kg/day for 48 hours, vs before treatment, FIG. 7) was “significantly inhibited”. For the same molecule, the anti-ovalbumin antibody titers (ovalbumin; 5 μg ovalbumin, 30 mg/kg Losartan at vaccination and 12, 24, 36 h after, p<0.05 (FIG. 9)) was “significantly higher anti-ovalbumin antibody titers” and the “IFNγ production by spleen cells” value (spleen cells) was “produced significantly more IFNγ”.
In the case of `CCCc1nc(C(C)(C)O)c(C(=O)O)n1Cc1ccc(-c2ccccc2-c2nnn[nH]2)cc1` [Olmesartan], the Bioavailability [1, 3] is given as 29% and the “Biological Half-Life” value [1, 3] is given as 14-16 hours.
In the case of `Cc1nccn1CC1CCc2c(c3ccccc3n2C)C1=O` (centres unmarked) [Ondansetron], the “human monocyte migration (THP-1) in vitro” value [2] is reported as “potently blocked THP-1 monocyte migration in vitro in a dose dependent manner”, the “migration of inflammatory monocytes to the draining lymph nodes” value (inflammatory monocytes; 3 mg/kg Ondansetron IP at footpad injection and 12, 24, 36 h after, p<0.001 (FIG. 4, 5)) is reported as “significantly reduced” and the anti-ovalbumin antibody titers (ovalbumin; 1 μg ovalbumin s.c. in liposomal adjuvant, 3 mg/kg Ondansetron i.p. at vaccination and 12, 24, 36 h after, p<0.05 (FIG. 10)) is reported as “significantly higher anti-ovalbumin antibody titers”. For the same molecule, the “infiltrating CD11b+ monocyte/macrophages in tumor tissues” value (A20-HA tumors; immunohistochemistry, vaccine with Ondansetron vs vaccine alone, FIG. 13) was “markedly fewer monocyte/macrophages”, the tumor growth rates (A20-HA tumors; mice with A20-HA tumors, HA vaccine weekly for 3 weeks with ondansetron 3 mg/kg i.p. 4 times at 12 h intervals, vs vaccine only, FIG. 12) was “significantly reduced” and the Biological Half-Life ([1]; text b221) was “about 3.9 hours”.
For `CCCc1nc2c(C)cc(-c3nc4ccccc4n3C)cc2n1Cc1ccc(-c2ccccc2C(=O)O)cc1` [Telmisartan], the Bioavailability [1, 3] is listed as 42-58%.

Source: patent publication US8975290B2, “Methods and compositions for enhancing an immune response, blocking monocyte migration, amplifying vaccine immunity and inhibiting tumor growth and metastasis” (Colorado State University Research Foundation, priority 2013, dated 2015)
